According to patent US20240309043A1, “THERAPEUTICALLY ACTIVE STEROIDAL DERIVATIVES” (Organon R&D Finland Ltd., priority 2017, published 2024):

Columns and labels:
Format in all cases: biochemical
[1] = test system: HSD1 enzyme that is expressed in rabbit placenta tissue; assay: Inhibition of E1 to E2 conversion in rabbit placenta tissue homogenate; conditions: inhibitor 100 nM, 30 nM estrone, 30 min
[2] = target: T1, recombinant human 17β-HSD1 (Homo sapiens, UniProt P14061); assay: Inhibition of recombinant human 17β-HSD1; conditions: inhibitor 100 nM; 30 nM estrone, 1 mM NADPH, 30 min RT
T1 construct: made in house; host or cells: Sd9 (Sf9) insect cells, baculovirus (Bac to Bac Expression System)
T1 sequence (P14061 1-328): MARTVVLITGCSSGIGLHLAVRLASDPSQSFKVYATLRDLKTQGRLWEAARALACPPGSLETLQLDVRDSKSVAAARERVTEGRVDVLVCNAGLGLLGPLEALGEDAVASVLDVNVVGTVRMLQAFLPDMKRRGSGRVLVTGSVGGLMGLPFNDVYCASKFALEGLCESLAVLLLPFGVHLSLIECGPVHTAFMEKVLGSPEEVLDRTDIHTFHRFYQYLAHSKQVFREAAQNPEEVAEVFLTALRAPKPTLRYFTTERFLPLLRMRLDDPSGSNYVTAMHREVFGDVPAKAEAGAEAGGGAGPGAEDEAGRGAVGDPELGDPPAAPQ
Summary of the method: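 Microsomes from Sf9 cells expressing human 17β-HSD1 (1 μg/ml) were incubated for 30 min at RT in 20 mM KH2PO4 pH 7.4 with 30 nM ³H-estrone, 1 mM NADPH and inhibitor at 1 μM or 0.1 μM (1% DMSO). Estrone-to-estradiol conversion was measured by radio-HPLC after TCA stop, and % inhibition was taken as 100 − % conversion.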

[3] = target: T2, recombinant human 17β-HSD2 (Homo sapiens, UniProt P37059); assay: Inhibition of recombinant human 17β-HSD2; conditions: inhibitor 1 μM; 50 nM estradiol, 1 mM NADH, 30 min RT
T2 construct: made in house; host or cells: Sd9 (Sf9) insect cells, baculovirus (Bac to Bac Expression System)
T2 sequence (P37059 1-387): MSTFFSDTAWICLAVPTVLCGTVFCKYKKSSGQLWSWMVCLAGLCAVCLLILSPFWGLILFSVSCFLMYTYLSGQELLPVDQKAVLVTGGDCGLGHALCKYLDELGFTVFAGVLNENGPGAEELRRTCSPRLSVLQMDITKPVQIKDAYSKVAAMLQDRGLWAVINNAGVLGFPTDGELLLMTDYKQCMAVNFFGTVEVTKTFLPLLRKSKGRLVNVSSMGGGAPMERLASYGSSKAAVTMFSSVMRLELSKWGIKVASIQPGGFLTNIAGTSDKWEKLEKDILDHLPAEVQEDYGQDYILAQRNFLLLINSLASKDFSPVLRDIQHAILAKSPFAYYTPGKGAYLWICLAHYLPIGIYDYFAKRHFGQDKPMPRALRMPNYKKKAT
Summary of the method: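 Sf9 baculovirus-expressed enzyme membrane extract (4 μg/ml) incubated 30 min at RT in 20 mM KH2PO4 pH 8.5 with 50 nM estradiol (³H-tracer) and 1 mM NADH, inhibitor at 1 μM or 0.1 μM, 1% DMSO. TCA-stopped; estradiol-to-estrone conversion by radio-HPLC, % inhibition = 100 − % conversion.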

SMILES | Rabbit placenta inhibition % @100 nM [1] [%] | inhibition at 0.1 µM [2] [%] | inhibition at 1 µM [3] [%] | HSD2 inhibition % @1 μM [3] [%]
C[C@]12CCC3c4ccc(Cl)cc4CCC3C1[C@H](CCC(=O)Nc1cc3c([nH]c1=O)CCCC3)C/C2=N\O (stereo partly drawn) [Compound 174, 3-((13S,15R,E)-3-chloro-17-(hydroxyimino)-13-methyl-7,8,9,11,12,13,14,15,16,17-decahydro-6H-cyclopenta[a]phenanthren-15-yl)-N-(2-oxo-1,2,5,6,7,8-hexahydroquinolin-3-yl)propanamide] | 10 | 84 | 12 | –
C[C@]12CCC3c4ccc(Cl)cc4CCC3C1[C@H](CCC(=O)NC1=NCCS1)C/C2=N\O (stereo partly drawn) [Compound 46, 3-((13S,15R,E)-3-chloro-17-(hydroxyimino)-13-methyl-7,8,9,11,12,13,14,15,16,17-decahydro-6H-cyclopenta[a]phenanthren-15-yl)-N-(4,5-dihydrothiazol-2-yl)propanamide] | 50 | 55 | 0 | –
C[C@]12CCC3c4ccc(Cl)cc4CCC3C1[C@H](CCC(=O)Nc1ncccc1F)C/C2=N\O (stereo partly drawn) [Compound 62, 3-((13S,15R,E)-3-chloro-17-(hydroxyimino)-13-methyl-7,8,9,11,12,13,14,15,16,17-decahydro-6H-cyclopenta[a]phenanthren-15-yl)-N-(3-fluoropyridin-2-yl)propanamide] | 3 | 45 | – | −8
C[C@]12CCC3c4cccc(F)c4CCC3C1[C@H](CCC(=O)NC1CCCCC1)C/C2=N\O (stereo partly drawn) [Compound 124, N-Cyclohexyl-3-((13S,15R,E)-4-fluoro-17-(hydroxyimino)-13-methyl-7,8,9,11,12,13,14,15,16,17-decahydro-6H-cyclopenta[a]phenanthren-15-yl)propanamide] | 4 | 86 | 4 | –
CNC(=O)CC[C@@H]1C/C(=N\O)[C@@]2(C)CCC3c4cccc(F)c4CCC3C12 (stereo partly drawn) [Compound 118, 3-((13S,15R,E)-4-fluoro-17-(hydroxyimino)-13-methyl-7,8,9,11,12,13,14,15,16,17-decahydro-6H-cyclopenta[a]phenanthren-15-yl)-N-methylpropanamide] | −1 | 43 | 2 | –
Cc1ccnc(NC(=O)CC[C@@H]2C/C(=N\O)[C@@]3(C)CCC4c5cccc(F)c5CCC4C23)c1 (stereo partly drawn) [Compound 130, 3-((13S,15R,E)-4-fluoro-17-(hydroxyimino)-13-methyl-7,8,9,11,12,13,14,15,16,17-decahydro-6H-cyclopenta[a]phenanthren-15-yl)-N-(4-methylpyridin-2-yl)propanamide] | 40 | 92 | 14 | –
C[C@]12CCC3c4ccc(Cl)cc4CCC3C1[C@H](CCC(=O)Nc1ccc(N3CCOCC3)cn1)C/C2=N\O (stereo partly drawn) [Compound 78, 3-((13S,15R,E)-3-chloro-17-(hydroxyimino)-13-methyl-7,8,9,11,12,13,14,15,16,17-decahydro-6H-cyclopenta[a]phenanthren-15-yl)-N-(5-morpholinopyridin-2-yl)propanamide] | 37 | 76 | 1 | –
C[C@]12CCC3c4cccc(F)c4CCC3C1[C@H](CCC(=O)NC1CCOCC1)C/C2=N\O (stereo partly drawn) [Compound 122, 3-((13S,15R,E)-4-fluoro-17-(hydroxyimino)-13-methyl-7,8,9,11,12,13,14,15,16,17-decahydro-6H-cyclopenta[a]phenanthren-15-yl)-N-(tetrahydro-2H-pyran-4-yl)propanamide] | 4 | 67 | 6 | –
C[C@]12CCC3c4ccccc4CCC3C1[C@H](CCC(=O)Nc1cccnn1)C/C2=N\O (stereo partly drawn) [Compound 82] | 18 | 17 | 7 | –
C[C@]12CCC3c4ccc(F)cc4CCC3C1[C@H](CCC(=O)Nc1ncccc1F)C/C2=N/O (stereo partly drawn) [Compound 150b, 3-((13S,15R,Z)-3-fluoro-17-(hydroxyimino)-13-methyl-7,8,9,11,12,13,14,15,16,17-decahydro-6H-cyclopenta[a]phenanthren-15-yl)-N-(3-fluoropyridin-2-yl)propanamide] | 3 | 30 | 6 | –
C[C@]12CCC3c4ccc(F)cc4CCC3C1[C@H](CCC(=O)Nc1ncc(F)cc1F)C/C2=N\O (stereo partly drawn) [Compound 152, N-(3,5-difluoropyridin-2-yl)-3-((13S,15R,E)-3-fluoro-17-(hydroxyimino)-13-methyl-7,8,9,11,12,13,14,15,16,17-decahydro-6H-cyclopenta[a]phenanthren-15-yl)propanamide] | 6 | 56 | 2 | –
CN1CCN(c2ccc(NC(=O)CC[C@@H]3C/C(=N\O)[C@@]4(C)CCC5c6ccccc6CCC5C34)nc2)CC1 (stereo partly drawn) [Compound 86, 3-((13S,15R,E)-17-(hydroxyimino)-13-methyl-7,8,9,11,12,13,14,15,16,17-decahydro-6H-cyclopenta[a]phenanthren-15-yl)-N-(5-(4-methylpiperazin-1-yl)pyridin-2-yl)propanamide] | 51 | 61 | 6 | –
C[C@]12CCC3c4cccc(F)c4CCC3C1[C@H](CCC(=O)N1CCOCC1)C/C2=N\O (stereo partly drawn) [Compound 136, 3-((13S,15R,E)-4-fluoro-17-(hydroxyimino)-13-methyl-7,8,9,11,12,13,14,15,16,17-decahydro-6H-cyclopenta[a]phenanthren-15-yl)-1-morpholinopropan-1-one] | 18 | 39 | -1 | –
C[C@]12CCC3c4ccc(F)cc4CCC3C1[C@H](CCC(=O)Nc1ccc(N3CCOCC3)cn1)C/C2=N\O (stereo partly drawn) [Compound 154, 3-((13S,15R,E)-3-fluoro-17-(hydroxyimino)-13-methyl-7,8,9,11,12,13,14,15,16,17-decahydro-6H-cyclopenta[a]phenanthren-15-yl)-N-(5-morpholinopyridin-2-yl)propanamide] | 38 | 83 | 7 | –
Cc1ccnc(NC(=O)CC[C@@H]2C/C(=N\O)[C@@]3(C)CCC4c5ccccc5CCC4C23)c1 (stereo partly drawn) [Compound 88, 3-((13S,15R,E)-17-(hydroxyimino)-13-methyl-7,8,9,11,12,13,14,15,16,17-decahydro-6H-cyclopenta[a]phenanthren-15-yl)-N-(4-methylpyridin-2-yl)propanamide] | 10 | 65 | -2 | –
C[C@]12CCC3c4ccc(Cl)cc4CCC3C1[C@H](CCC(=O)Nc1ccccn1)C/C2=N\O (stereo partly drawn) [Compound 68, 3-((13S,15R,E)-3-chloro-17-(hydroxyimino)-13-methyl-7,8,9,11,12,13,14,15,16,17-decahydro-6H-cyclopenta[a]phenanthren-15-yl)-N-(pyridin-2-yl)propanamide] | 12 | 67 | 3 | –
CN(C(=O)CC[C@@H]1C/C(=N\O)[C@@]2(C)CCC3c4ccccc4CCC3C12)C1CCOCC1 (stereo partly drawn) [Compound 80, 3-((13S,15R,E)-17-(hydroxyimino)-13-methyl-7,8,9,11,12,13,14,15,16,17-decahydro-6H-cyclopenta[a]phenanthren-15-yl)-N-methyl-N-(tetrahydro-2H-pyran-4-yl)propanamide] | 3 | 32 | 4 | –
C[C@]12CCC3c4cccc(F)c4CCC3C1[C@H](CCC(=O)N1CCC3(CCOCC3)C1)C/C2=N\O (stereo partly drawn) [Compound 128, 3-((13S,15R,E)-4-fluoro-17-(hydroxyimino)-13-methyl-7,8,9,11,12,13,14,15,16,17-decahydro-6H-cyclopenta[a]phenanthren-15-yl)-1-(8-oxa-2-azaspiro[4.5]decan-2-yl)propan-1-one] | 2 | 59 | 6 | –
